The nature of the data set: Solubility of tetrahydrate Form S3 in different solvents. Type of data set: physicochemical.

In brackets after ≈: the same amount, converted by molar mass.

For `CC(C)[C@H]1C(=O)N[C@@H](CCCN=C(N)N)C(=O)NCC(=O)N[C@@H](CC(=O)O)C(=O)N[C@H](Cc2ccccc2)C(=O)N1C` [crystalline form S3, cyclo-(Arg-Gly-Asp-DPhe-NMe-Val)], the solubility (usually the concentration that dissolves in the medium under given conditions) is 21.6 mg/mL (≈ 36.7 mM) (solvent H2O); 22.7 mg/mL (≈ 38.6 mM) (solvent H2O/Acetone (1:1)); 24.3 mg/mL (≈ 41.3 mM) (solvent H2O/Acetonitrile (1:1)); 13 mg/mL (≈ 22.1 mM) (solvent H2O/EtOH (1:1)); 12.8 mg/mL (≈ 21.7 mM) (solvent H2O/MeOH (1:1)); 22.9 mg/mL (≈ 38.9 mM) (solvent H2O/iPrOH (1:1)). In addition, the solubility worked out at 24.4 mg/mL (≈ 41.4 mM) (solvent buffer pH 7.4) and 21.1 mg/mL (≈ 35.8 mM) (solvent physiological NaCl solution).

The values above are taken from US8765684B2, “Solid materials of {[(2S,5R,8S,11S)-5-benzyl-11-(3-guanidino-propyl)-8-isopropyl-7-methyl-3,6,9,12,15-pentaoxo-1,4,7,10,13-pentaaza-cyclopentadec-2-yl]-acetic acid} and methods for obtaining them” (Merck Patent GmbH, priority 2009, dated 2014).
